Source: PubChem BioAssay AID1259407 (Chemical Carcinogenesis Research Information System (CCRIS), 2018)
Active and inactive are the calls of the source. How the calls were made is not given here.

Tested on: CCRIS mutagenicity, Ames/micronucleus/aberration tests
Test: CCRIS mutagenicity studies
[1] = Test System: AMES SALMONELLA TYPHIMURIUM, Strain/Indicator: TA98, Metabolic Activation: NONE, Method: PREINCUBATION
[2] = Test System: AMES SALMONELLA TYPHIMURIUM, Strain/Indicator: TA100, Metabolic Activation: NONE, Method: PREINCUBATION

Measured: mutagenic call

Cl/C=C/Cl
active: Test System: AMES SALMONELLA TYPHIMURIUM, Strain/Indicator: TA97, Metabolic Activation: RAT, LIVER, S-9, AROCLOR 1254, Method: STANDARD PLATE active; positive | Test System: AMES SALMONELLA TYPHIMURIUM, Strain/Indicator: TA98, Metabolic Activation: RAT, LIVER, S-9, AROCLOR 1254, Method: STANDARD PLATE active; positive | Test System: AMES SALMONELLA TYPHIMURIUM, Strain/Indicator: TA100, Metabolic Activation: NONE, Method: STANDARD PLATE active; positive | Test System: AMES SALMONELLA TYPHIMURIUM, Strain/Indicator: TA100, Metabolic Activation: RAT, LIVER, S-9, AROCLOR 1254, Method: STANDARD PLATE active; positive
inactive: End Point: IN VITRO CHROMOSOMAL ABERRATIONS, Test System: CHINESE HAMSTER LUNG (CHL), Metabolic Activation: NONE inactive; negative | End Point: IN VITRO CHROMOSOMAL ABERRATIONS, Test System: CHINESE HAMSTER LUNG (CHL), Metabolic Activation: RAT, LIVER, S-9, KC-400 inactive; negative | Test System: AMES SALMONELLA TYPHIMURIUM, Strain/Indicator: TA97, Metabolic Activation: NONE, Method: STANDARD PLATE inactive; negative | Test System: AMES SALMONELLA TYPHIMURIUM, Strain/Indicator: TA98, Metabolic Activation: HAMSTER LIVER S-9, AROCLOR 1254 (10%), Method: PREINCUBATION inactive; negative | Test System: AMES SALMONELLA TYPHIMURIUM, Strain/Indicator: TA98, Metabolic Activation: HAMSTER, LIVER, S-9, AROCLOR 1254 (10%), Method: PREINCUBATION inactive; negative | [1] inactive; negative | Test System: AMES SALMONELLA TYPHIMURIUM, Strain/Indicator: TA98, Metabolic Activation: NONE, Method: STANDARD PLATE inactive; negative | Test System: AMES SALMONELLA TYPHIMURIUM, Strain/Indicator: TA98, Metabolic Activation: RAT LIVER S-9, AROCLOR 1254 (10%), Method: PREINCUBATION inactive; negative | Test System: AMES SALMONELLA TYPHIMURIUM, Strain/Indicator: TA98, Metabolic Activation: RAT, LIVER, S-9, AROCLOR 1254 (10%), Method: PREINCUBATION inactive; negative | Test System: AMES SALMONELLA TYPHIMURIUM, Strain/Indicator: TA100, Metabolic Activation: HAMSTER LIVER S-9, AROCLOR 1254 (10%), Method: PREINCUBATION inactive; negative | Test System: AMES SALMONELLA TYPHIMURIUM, Strain/Indicator: TA100, Metabolic Activation: HAMSTER, LIVER, S-9, AROCLOR 1254 (10%), Method: PREINCUBATION inactive; negative | [2] inactive; negative | Test System: AMES SALMONELLA TYPHIMURIUM, Strain/Indicator: TA100, Metabolic Activation: RAT LIVER S-9, AROCLOR 1254 (10%), Method: PREINCUBATION inactive; negative | Test System: AMES SALMONELLA TYPHIMURIUM, Strain/Indicator: TA100, Metabolic Activation: RAT, LIVER, S-9, AROCLOR 1254 (10%), Method: PREINCUBATION inactive; negative | Test System: AMES SALMONELLA TYPHIMURIUM, Strain/Indicator: TA104, Metabolic Activation: NONE, Method: STANDARD PLATE inactive; negative | Test System: AMES SALMONELLA TYPHIMURIUM, Strain/Indicator: TA104, Metabolic Activation: RAT, LIVER, S-9, AROCLOR 1254, Method: STANDARD PLATE inactive; negative | Test System: AMES SALMONELLA TYPHIMURIUM, Strain/Indicator: TA1535, Metabolic Activation: HAMSTER LIVER S-9, AROCLOR 1254 (10%), Method: PREINCUBATION inactive; negative | Test System: AMES SALMONELLA TYPHIMURIUM, Strain/Indicator: TA1535, Metabolic Activation: HAMSTER, LIVER, S-9, AROCLOR 1254 (10%), Method: PREINCUBATION inactive; negative | Test System: AMES SALMONELLA TYPHIMURIUM, Strain/Indicator: TA1535, Metabolic Activation: NONE, Method: PREINCUBATION inactive; negative | Test System: AMES SALMONELLA TYPHIMURIUM, Strain/Indicator: TA1535, Metabolic Activation: RAT LIVER S-9, AROCLOR 1254 (10%), Method: PREINCUBATION inactive; negative | Test System: AMES SALMONELLA TYPHIMURIUM, Strain/Indicator: TA1535, Metabolic Activation: RAT, LIVER, S-9, AROCLOR 1254 (10%), Method: PREINCUBATION inactive; negative | Test System: AMES SALMONELLA TYPHIMURIUM, Strain/Indicator: TA1537, Metabolic Activation: HAMSTER LIVER S-9, AROCLOR 1254 (10%), Method: PREINCUBATION inactive; negative | Test System: AMES SALMONELLA TYPHIMURIUM, Strain/Indicator: TA1537, Metabolic Activation: HAMSTER, LIVER, S-9, AROCLOR 1254 (10%), Method: PREINCUBATION inactive; negative | Test System: AMES SALMONELLA TYPHIMURIUM, Strain/Indicator: TA1537, Metabolic Activation: NONE, Method: PREINCUBATION inactive; negative | Test System: AMES SALMONELLA TYPHIMURIUM, Strain/Indicator: TA1537, Metabolic Activation: RAT LIVER S-9, AROCLOR 1254 (10%), Method: PREINCUBATION inactive; negative | Test System: AMES SALMONELLA TYPHIMURIUM, Strain/Indicator: TA1537, Metabolic Activation: RAT, LIVER, S-9, AROCLOR 1254 (10%), Method: PREINCUBATION inactive; negative

COC(=O)/C=C/c1ccc([N+](=O)[O-])o1
active: [1] active; positive

COP(=O)(OC)OC
inactive: Test System: AMES SALMONELLA TYPHIMURIUM, Strain/Indicator: TA98, Metabolic Activation: HAMSTER, LIVER, S-9, AROCLOR 1254 (30%), Method: PREINCUBATION inactive; negative | [1] inactive; negative | Test System: AMES SALMONELLA TYPHIMURIUM, Strain/Indicator: TA98, Metabolic Activation: RAT, LIVER, S-9, AROCLOR 1254 (30%), Method: PREINCUBATION inactive; negative | [2] inactive; negative | Test System: AMES SALMONELLA TYPHIMURIUM, Strain/Indicator: TA102, Metabolic Activation: NONE, Method: STANDARD PLATE inactive; negative
active: Test System: AMES SALMONELLA TYPHIMURIUM, Strain/Indicator: TA100, Metabolic Activation: HAMSTER, LIVER, S-9, AROCLOR 1254 (30%), Method: PREINCUBATION active; positive | Test System: AMES SALMONELLA TYPHIMURIUM, Strain/Indicator: TA100, Metabolic Activation: RAT, LIVER, S-9, AROCLOR 1254 (30%), Method: PREINCUBATION active; positive | Test System: AMES SALMONELLA TYPHIMURIUM, Strain/Indicator: TA2638, Metabolic Activation: NONE, Method: STANDARD PLATE active; positive | Test System: E. COLI, Strain/Indicator: WP2 (PKM101), Metabolic Activation: NONE, Method: STANDARD PLATE active; positive | Test System: E. COLI, Strain/Indicator: WP2 UVRA (PKM101), Metabolic Activation: NONE, Method: STANDARD PLATE active; positive
